pIC50, pKd: −log10 of the molar value.
target: T1, CbuqSNMP1b (Cyrtotrachelus buqueti, UniProt A0A9E9JN76); assay: Fluorescence competition binding assay with 1-NPN as fluorescent probe; conditions: not given
Procedure: 1-NPN and all of the other chemicals (the purity being at least more than 96%) used in the binding assays were purchased from Aladdin Biochemical Technology Co., Ltd. (Shanghai, China). The Lumina fluorescence spectrophotometer (Thermo Fisher Scientific, Waltham, MA, USA) was used to perform fluorescence binding assays with a 1 cm light path quartz cuvette at room temperature. All the slit widths for both excitation and emission were 10 nm. The 1-NPN and all the other chemicals were dissolved in methanol (HPLC-grade) to a final concentration of 1 mM. The binding constant of 1-NPN was determined by titrating a 2 μM solution of the CbuqSNMP1b protein with aliquots of 2–40 μM 1-NPN concentrations. The binding of 1-NPN was measured at an excitation wavelength of 337 nm. The scanning range was 360–560 nm at each concentration and the maximum fluorescence intensities were plotted against the free ligand concentration.

T1 sequence (A0A9E9JN76 entry or part of it): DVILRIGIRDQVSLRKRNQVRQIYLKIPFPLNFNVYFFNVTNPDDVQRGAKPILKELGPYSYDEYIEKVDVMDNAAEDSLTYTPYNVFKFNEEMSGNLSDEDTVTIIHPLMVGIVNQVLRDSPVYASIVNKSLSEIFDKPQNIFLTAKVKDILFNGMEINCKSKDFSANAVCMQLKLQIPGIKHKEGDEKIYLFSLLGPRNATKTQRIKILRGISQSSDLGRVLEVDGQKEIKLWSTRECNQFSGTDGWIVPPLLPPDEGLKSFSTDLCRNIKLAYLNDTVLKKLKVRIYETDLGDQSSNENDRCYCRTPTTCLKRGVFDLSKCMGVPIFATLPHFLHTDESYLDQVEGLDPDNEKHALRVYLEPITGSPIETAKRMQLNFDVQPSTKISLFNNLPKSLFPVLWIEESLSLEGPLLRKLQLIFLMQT

SMILES | pIC50
Oc1ccccc1 [Phenol] | 4.62
C[C@@H]1CC[C@H]2C(C)(C)[C@H]3C[C@@]12CC[C@@]3(C)O [Cedrol] | < 4.30
CCCCOC(=O)c1ccccc1C(=O)OCCCC [Dibutyl phthalate] | 4.98
Cc1cccc(C)c1 [M-xylene] | < 4.30
C=Cc1ccccc1 [Styrene] | < 4.30
c1ccc2scnc2c1 [Benzothiazole] | 4.88
CC(C)=CCC/C(C)=C/CC/C(C)=C/CC/C=C(\C)CC/C=C(\C)CCC=C(C)C [Squalene] | < 4.30
C=C(C)[C@H]1CC=C(C)CC1 [(+)-Limonene] | < 4.30

same assay, conditions: recombinant CbuqSNMP1b and 1-NPN both at 2 μM; displacement of 1-NPN; room temperature; read-out: IC50

pIC50 | SMILES
< 4.30 | CCCCCCCCC=O [1-Nonanal]
< 4.30 | CCCCCCCCCCCCCCCC(=O)OC [Methyl hexadecanoate]
< 4.30 | CCCCCCCC(C)=O [2-Nonanone]
< 4.30 | CCCCCCCCCC=O [Decyl aldehyde]
< 4.30 | CCCCCC(=O)OCC [Ethyl hexanoate]
< 4.30 | CCCC/C=C/C=C/C=O [trans,trans-2,4-Nonadienal]

target: T1, CbuqSNMP1b; assay: Binding of 1-NPN to CbuqSNMP1b (fluorescence titration, Scatchard analysis); conditions: 2 μM CbuqSNMP1b titrated with 2–40 μM 1-NPN; Scatchard plot; read-out: dissociation constant (Kd) of the CbuqSNMP1b/1-NPN complex
Procedure: Binding affinities of CbuqSNMP1b to 14 volatiles (Table 1) emitted by female adults of C. buqueti were measured with the fluorescence competition binding assays using N-phenyl-1-naphthylamine (1-NPN) as the fluorescent probe. 1-NPN and all of the other chemicals (the purity being at least more than 96%) used in the binding assays were purchased from Aladdin Biochemical Technology Co., Ltd. (Shanghai, China). The Lumina fluorescence spectrophotometer (Thermo Fisher Scientific, Waltham, MA, USA) was used to perform fluorescence binding assays with a 1 cm light path quartz cuvette at room temperature. All the slit widths for both excitation and emission were 10 nm. The 1-NPN and all the other chemicals were dissolved in methanol (HPLC-grade) to a final concentration of 1 mM. The binding constant of 1-NPN was determined by titrating a 2 μM solution of the CbuqSNMP1b protein with aliquots of 2–40 μM 1-NPN concentrations. The binding of 1-NPN was measured at an excitation wavelength of 337 nm. The scanning range was 360–560 nm at each concentration and the maximum fluorescence intensities were plotted against the free ligand concentration. […]

SMILES | pKd
c1ccc(Nc2cccc3ccccc23)cc1 [1-NPN, N-phenyl-1-naphthylamine] | 4.88
